Results published in the NIST ThermoML archive (doi:10.1016/j.jct.2016.09.015).
Numbers after ± are expanded uncertainties.

Tests used:
[1] = Crystal; DTA
[2] = Molar enthalpy of transition or fusion; details: Crystal; DSC

Normal melting temperature [1]: 168.68 ± 0.46 °C
Molar enthalpy of transition or fusion [2]: 31.1 ± 2.2 kJ/mol
Structure (SMILES): C[C@@H]1O[C@@H](OC[C@H]2O[C@@H](Oc3c(-c4ccc(OCCO)c(OCCO)c4)oc4cc(OCCO)cc(O)c4c3=O)[C@H](O)[C@@H](O)[C@@H]2O)[C@H](O)[C@H](O)[C@H]1O [Troxerutin]
